Data published in patent US11802120B2, “Fused cyclic urea derivatives as CRHR2 antagonist” (RaQualia Pharma Inc., priority 2018, dated 2023).
pIC50: −log10 of the molar value.

Target: T1, human CRHR2-alpha (Homo sapiens, UniProt Q13324)
T1 sequence (Q13324 1-411): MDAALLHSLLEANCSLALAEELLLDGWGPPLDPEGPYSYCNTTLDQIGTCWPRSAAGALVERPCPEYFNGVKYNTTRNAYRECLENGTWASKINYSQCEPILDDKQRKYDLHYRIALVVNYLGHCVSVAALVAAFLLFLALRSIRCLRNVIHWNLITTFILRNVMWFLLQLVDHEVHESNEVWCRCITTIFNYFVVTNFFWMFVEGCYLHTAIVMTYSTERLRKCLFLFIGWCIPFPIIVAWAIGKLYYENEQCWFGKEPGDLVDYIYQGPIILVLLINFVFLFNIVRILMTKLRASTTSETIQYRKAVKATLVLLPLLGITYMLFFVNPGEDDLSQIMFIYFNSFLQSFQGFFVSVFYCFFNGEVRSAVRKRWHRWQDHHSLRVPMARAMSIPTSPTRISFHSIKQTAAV
Assay: cAMP functional assay for human CRHR2 (LANCE Ultra cAMP, TR-FRET)
Format: cell-based
Conditions: CHO-K1 cells expressing human CRHR2-alpha, agonist human urocortin2 at EC80, cAMP; read-out: IC50 against CRHR2
In short: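 CHO-K1 cells stably expressing each receptor, serum-starved and cryopreserved, were preincubated with compound 30 min at 25° C in HBSS buffer with 0.5 mM IBMX, pH 7.4, then stimulated 30 min with EC80 agonist (urocortin2 for CRHR2, CRF for CRHR1). cAMP read by TR-FRET; IC50 from percent-inhibition curves.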

pIC50, > 6.52:
Cc1ncc(Cl)cc1C(=O)N[C@H]1CC[C@H](Cn2c(=O)n(-c3ccc4c(c3)nnn4C3COC3)c3ccccc32)CC1 [Example 341, 5-chloro-2-methyl-N-((1r,4r)-4-((3-(1-(oxetan-3-yl)-1H-benzo[d][1,2,3]triazol-5-yl)-2-oxo-2,3-dihydro-1H-benzo[d]imidazol-1-yl)methyl)cyclohexyl)nicotinamide]
Cc1ncc(Cl)cc1C(=O)N[C@H]1CC[C@H](Cn2c(=O)n(-c3ccc4c(c3)cc(CO)n4C)c3ccccc32)CC1 [Example 497, 5-chloro-N-((1r,4r)-4-((3-(2-(hydroxymethyl)-1-methyl-1H-indol-5-yl)-2-oxo-2,3-dihydro-1H-benzo[d]imidazol-1-yl)methyl)cyclohexyl)-2-methylnicotinamide]
Cc1cc(C#N)c(-n2c(=O)n(C[C@H]3CC[C@H](NC(=O)c4cc(Cl)cnc4C)CC3)c3ccccc32)cn1 [Example 308, 5-chloro-N-((1r,4r)-4-((3-(4-cyano-6-methylpyridin-3-yl)-2-oxo-2,3-dihydro-1H-benzo[d]imidazol-1-yl)methyl)cyclohexyl)-2-methylnicotinamide]
Cc1ncc(Cl)cc1C(=O)N[C@H]1CC[C@H](Cn2c(=O)n(-c3ccc4nn(C5COC5)nc4c3)c3ccccc32)CC1 [Example 340, 5-chloro-2-methyl-N-((1r,4r)-4-((3-(2-(oxetan-3-yl)-2H-benzo[d][1,2,3]triazol-5-yl)-2-oxo-2,3-dihydro-1H-benzo [d]imidazol-1-yl)methyl)cyclohexyl)nicotinamide]
O=C(N[C@H]1CC[C@H](Cn2c(=O)n(-c3cccc4nccn34)c3ccccc32)CC1)c1cc(Cl)cnc1C(F)F [Example 420, 5-chloro-2-(difluoromethyl)-N-((1r,4r)-4-((3-(imidazo[1,2-a]pyridin-5-yl)-2-oxo-2,3-dihydro-1H-benzo[d]imidazol-1-yl)methyl)cyclohexyl)nicotinamide]
Cc1cc(-n2c(=O)n(C[C@H]3CC[C@H](NC(=O)c4cc(Cl)cnc4C(F)F)CC3)c3ccccc32)ccn1 [Example 377, 5-chloro-2-(difluoromethyl)-N-((1r,4r)-4-((3-(2-methyl-pyridin-4-yl)-2-oxo-2,3-dihydro-1H-benzo[d]imidazol-1-yl)methyl)cyclohexyl) nicotinamide]
Cc1ncc(Cl)cc1C(=O)N[C@H]1CC[C@H](Cn2c(=O)n(-c3cccc(-c4cocn4)c3)c3ccccc32)CC1 [Example 568, 5-chloro-2-methyl-N-((1r,4r)-4-((3-(3-(oxazol-4-yl)phenyl)-2-oxo-2,3-dihydro-1H-benzo [d]imidazol-1-yl)methyl)cyclo-hexyl)nicotinamide]
Cc1ncc(Cl)cc1C(=O)N[C@H]1CC[C@H](Cn2c(=O)n(-c3cnc4c(c3)c(C)cn4C)c3ccccc32)CC1 [Example 409, 5-chloro-N-((1r,4r)-4-((3-(1,3-dimethyl-1H-pyrrolo[2,3-b]pyridin-5-yl)-2-oxo-2,3-dihydro-1H-benzo[d]imidazol-1-yl)methyl)cyclohexyl)-2-methylnicotinamide]
O=C(N[C@H]1CC[C@H](Cn2c(=O)n(-c3ccc(N[C@H]4CCOC4)nc3)c3ccccc32)CC1)c1cc(Cl)cnc1C(F)(F)F [Example 299, 5-chloro-N-((1S,4r)-4-((2-oxo-3-(6-(((S)-tetrahydro-furan-3-yl)amino)pyridin-3-yl)-2,3-dihydro-1H-benzo [d]imidazol-1-yl)methyl)cyclohexyl)-2-(trifluoro-methyl)nicotinamide]
CCn1nc2ccccc2c1C(=O)N[C@H]1CC[C@H](Cn2c(=O)n(-c3ccc(OC)nc3)c3ccccc32)CC1 [Example 39, 2-ethyl-N-((1r,4r)-4-((3-(6-methoxypyridin-3-yl)-2-oxo-2,3-dihydro-1H-benzo[d]imidazol-1-yl)methyl)cyclohexyl)-2H-indazole-3-carboxamide]
O=C(N[C@H]1CC[C@H](Cn2c(=O)n(-c3cncc4ccccc34)c3ccccc32)CC1)c1cc(Cl)cnc1C(F)F [Example 418, 5-chloro-2-(difluoromethyl)-N-((1r,4r)-4-((3-(isoquinolin-4-yl)-2-oxo-2,3-dihydro-1H-benzo [d]imidazol-1-yl)methyl)cyclo-hexyl)nicotinamide]
Cc1ccc(-n2c(=O)n(C[C@H]3CC[C@H](NC(=O)c4cc(Cl)ccc4Cl)CC3)c3ccccc32)cn1 [Example 269, 2,5-dichloro-N-((1r,4r)-4-((3-(6-methylpyridin-3-yl)-2-oxo-2,3-dihydro-1H-benzo[d]imidazol-1-yl)methyl)cyclohexyl)benzamide]
O=C(N[C@H]1CC[C@H](Cn2c(=O)n(-c3ccn4cncc4c3)c3ccccc32)CC1)c1cc(Cl)cnc1C(F)(F)F [Example 342, 5-chloro-N-((1r,4r)-4-((3-(imidazo[1,5-a]pyridin-7-yl)-2-oxo-2,3-dihydro-1H-benzo[d]imidazol-1-yl)methyl)cyclohexyl)-2-(tri-fluoromethyl)nicotinamide]
O=C(N[C@H]1CC[C@H](Cn2c(=O)n(-c3ccc(NCCO)nc3)c3ccc(F)cc32)CC1)c1cc(Cl)cnc1C(F)F [Example 713, 5-chloro-2-(difluoromethyl)-N-((1r,4r)-4-((6-fluoro-3-(6-((2-hydroxyethyl)amino)pyridin-3-yl)-2-oxo-2,3-di-hydro-1H-benzo[d]imidazol-1-yl)methyl)cyclohexyl) nicotinamide]
O=C(N[C@H]1CC[C@H](Cn2c(=O)n(-c3ccn4cncc4c3)c3ccccc32)CC1)c1cc(Cl)cnc1C(F)F [Example 415, 5-chloro-2-(difluoromethyl)-N-((1r,4r)-4-((3-(imidazo[1,5-a]pyridin-7-yl)-2-oxo-2,3-dihydro-1H-benzo[d]imidazol-1-yl)methyl)cyclohexyl)nicotinamide]
O=C(N[C@H]1CC[C@H](Cn2c(=O)n(-c3ccccc3Cl)c3cnccc32)CC1)c1cc(Cl)cnc1C(F)F [Example 721, 5-chloro-N-((1r,4r)-4-((3-(2-chlorophenyl)-2-oxo-2,3-dihydro-1H-imidazo[4,5-c]pyridin-1-yl)methyl)cyclo-hexyl)-2-(difluoromethyl) nicotinamide]
Cc1ccc(-n2c(=O)n(C[C@H]3CC[C@H](NC(=O)c4cc(Cl)cnc4C(F)F)CC3)c3ccccc32)cn1 [Example 324, 5-chloro-2-(difluoromethyl)-N-((1r,4r)-4-((3-(6-methyl-pyridin-3-yl)-2-oxo-2,3-dihydro-1H-benzo[d]imidazol-1-yl)methyl)cyclohexyl)nico-tinamide]
Cc1ncc(Cl)cc1C(=O)N[C@H]1CC[C@H](Cn2c(=O)n(-c3ccc(N[C@@H]4CCOC4)nc3)c3ccccc32)CC1 [Example 107, 5-chloro-2-methyl-N-((1R,4R)-4-((2-oxo-3-(6-(((R)-tetrahydro-furan-3-yl)amino)pyridin-3-yl)-2,3-dihydro-1H-benzo[d]imidazol-1-yl)methyl)cyclohexyl) nicotinamide]
Cc1cnccc1-n1c(=O)n(C[C@H]2CC[C@H](NC(=O)c3cc(Cl)cnc3C(F)(F)F)CC2)c2ccccc21 [Example 289, 5-chloro-N-((1r,4r)-4-((3-(3-methylpyridin-4-yl)-2-oxo-2,3-dihydro-1H-benzo[d]imidazol-1-yl)methyl)cyclo-hexyl)-2-(trifluoromethyl) nicotinamide]
Cc1ncc(Cl)cc1C(=O)N[C@H]1CC[C@H](Cn2c(=O)n(-c3ccc4c(C)n[nH]c4c3)c3ccccc32)CC1 [Example 205, 5-chloro-2-methyl-N-((1r,4r)-4-((3-(3-methyl-1H-indazol-6-yl)-2-oxo-2,3-dihydro-1H-benzo[d]imidazol-1-yl)methyl)cyclohexyl)nicotinamide]
CNC(=O)c1ccc(-n2c(=O)n(C[C@H]3CC[C@H](NC(=O)c4cc(Cl)cnc4C(F)F)CC3)c3cc(F)ccc32)cn1 [Example 530, 5-(3-(((1r,4r)-4-(5-chloro-2-(difluoromethyl)nicotinamido)cyclohexyl)methyl)-5-fluoro-2-oxo-2,3-dihydro-1H-benzo [d]imidazol-1-yl)-N-methylpicolinamide]
Cc1ccc(-n2c(=O)n(C[C@H]3CC[C@H](NC(=O)c4cc(Cl)cnc4C)CC3)c3cc(F)ccc32)cn1 [Example 123, 5-chloro-N-((1r,4r)-4-((6-fluoro-3-(6-methylpyridin-3-yl)-2-oxo-2,3-dihydro-1H-benzo[d]imidazol-1-yl)methyl)cyclo-hexyl)-2-methylnicotinamide]
O=C(N[C@H]1CC[C@H](Cn2c(=O)n(-c3ccc(NC4CC4)nc3)c3ccccc32)CC1)c1cc(Cl)cnc1C(F)F [Example 543, 5-chloro-N-((1r,4r)-4-((3-(6-(cyclopropylamino)pyridin-3-yl)-2-oxo-2,3-dihydro-1H-benzo[d]imidazol-1-yl)methyl)cyclohexyl)-2-(difluoro-methyl)nicotinamide]
